The text below walks through data of patent US20220118124A1, “R[…]-LABELED, PHOTO-CRO[…], AND PREPARATION METHOD THEREFOR” (SNVIA CO., LTD., priority 2019, published 2022).

A short description of the data set: In vivo local retention experiment of ^131I-HAMA microgel (SPECT gamma imaging after injection into femoral muscle). Conditions: rat. The procedure: An experiment was performed to confirm the distribution of ^131I and how long the ^131I-HAMA microgel was maintained at the site injected into the body. After injecting 0.2 mL of a solution of Na^131I and ^131I-HAMA microgel (1 mCi/mL) dispersed in PBS into the femoral muscle of the rat, gamma images were obtained over time with the SPECT imaging system (Infinia Hawkeye 4, GE Healthcare, USA). Within 30 minutes immediately after injection, the radioactivity at the injection site was measured with a counter per second in a dynamic mode. After 30 minutes, an image of the whole rat injected with ^131I over time was obtained in static mode, and gamma counters of major tissues such as the injection site, thyroid gland and stomach were measured.

`[131I-].[Na+]` [^131I solution, Na^131I]: the “radiation intensity over time in vivo” value (after injection into femoral muscle) is listed as “decreased rapidly”. The “time to flow to the whole body (SPECT image)” value (intramuscular injection, 200 μCi) was 30 min. The “spreading rate in the body from the injection site (dynamic imaging)” value (within 30 minutes after injection) is “faster than that of the ^131I-HAMA microgel”. Further, the “migration of ^131I to other tissues (gamma counts)” value (injection site, thyroid gland, stomach, bladder) is “measured in the thyroid gland, stomach, and bladder in addition to the injection site”.
